Experimental findings from ChEMBL document CHEMBL1201862, “PubChem BioAssay data set” (2004) are described below.

For one test, the system named is DU-145. Description: DTP human tumour cell line panel, 48 h.
A further test deals with T47D. Put plainly: DTP human tumour cell line panel, 48 h.

Structures are written as SMILES.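 96-well plates; 48 h exposure; 5 concentrations. Endpoints by linear interpolation between flanking doses. Not reached: highest tested concentration assigned. GI50 marks 50% less growth.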 The source made the active and inactive calls. Rule as the data show it: active = GI50 up to about 1.1 µM and inactive = higher. Peptide text beside a SMILES is read from it. * marks the point of attachment. Boc = CC(C)(C)OC(=O)* Some results are limits rather than exact numbers.

For `Cn1ccnc1Sc1ccc(/C=N/NC(=O)c2ccccc2[N+](=O)[O-])cc1[N+](=O)[O-]`, the values for the GI50 in the test with DU-145 and in the test on T47D were 66.7 µM (inactive) and 40.6 µM (inactive), respectively.
Consider `FC(F)(F)c1ccc(Cc2nc3cc4ccccc4cc3[nH]2)cc1`, for which the GI50 was > 100 µM (inactive) in the test on DU-145 and 39.9 µM (inactive) in the test with T47D.
Take `CCN(CCCl)c1cc(CN(C)C)cc(NC(=O)c2ccc(C(=O)Nc3cccc(N(CCCl)NN)c3)cc2)c1`: the GI50 in the test with DU-145 is 0.0234 µM (active); with T47D, 0.0612 µM (active).
Consider `O=[N+]([O-])c1ccccc1S(=O)(=O)c1cc(O)cc2c1NCCC2`, for which the GI50 is 20.7 µM (inactive) in the test on DU-145 and 6.35 µM (inactive) in the test on T47D.
Consider `CC(C)(C)OC(=O)NCCC1SC2C=CC1C2` (configuration not stated), for which the results for the GI50 in the test on DU-145 and in the test on T47D were > 100 µM (inactive) and 99.3 µM (inactive), respectively.
On to `COc1ccc2c(-c3ccc(OCCN(C)C)cc3)c(Oc3ccc(Cl)cc3)c(=O)oc2c1`, for which the GI50 in the test on DU-145 was 13.7 µM (inactive); in the test on T47D it was > 20.4 µM (inactive).
For the compound `COc1ccc(/C=C2\CCCc3ccccc3C2=O)cc1`, in the test with DU-145, the GI50 is 0.185 µM (active).
On to `CCOC(=O)c1nc2cc(C(F)(F)F)ccc2nc1Nc1ccc(OC)cc1`, for which the GI50 with DU-145 is > 100 µM (inactive); with T47D it was 95.1 µM (inactive).
On to `COC(Cc1ccccc1)NC(C)=O` (configuration not stated), for which the GI50 in the test with DU-145 and in the test with T47D was > 100 µM (inactive) each time.
For the compound `O=C(c1cccs1)N(C(=O)N1CCN(c2ccccc2)CC1)S(=O)(=O)c1ccccc1`, the GI50 in the test on DU-145 was 16.5 µM (inactive); in the test with T47D, 12.7 µM (inactive).
Consider `COC(=NC(C)C)NC(C)C`, for which the GI50 with DU-145 and with T47D was > 100 µM (inactive) throughout.
In the case of `CC(=O)CC(=O)c1cc2c(=O)oc(C)cc2oc1=O`, in the test on DU-145, the GI50 was > 37.5 µM (inactive).
`C#CCOC(=O)C(N)CC(N)=O` (configuration not stated): the GI50 in the test with DU-145 was > 100 µM (inactive); in the test with T47D, > 69 µM (inactive).
For the compound `CC(C)=CCC/C(C)=C/CC/C(C)=C/[C@@H]1[C@@H](CO)[C@]1(C)CC/C=C(\C)CCC=C(C)C`, the figures for the GI50 with DU-145 and in the test with T47D were 39.6 µM (inactive) and 41.3 µM (inactive), respectively.
Turning to `CC1CCc2sc3nc(S)n(C)c(=O)c3c2C1` (configuration not stated), the GI50 in the test with DU-145 is 50.8 µM (inactive); in the test on T47D it was 48.5 µM (inactive).
For `COc1cc(/C=C2\C(=O)N(c3cccc(NC(C)=O)c3)C(c3ccccc3)S2(=O)=O)cc(OC)c1OC` (configuration not stated), in that order: > 100 µM (inactive) and 34.7 µM (inactive).
On to `O=C(c1ccco1)n1c2ccc(Br)cc2c2nc3ccccc3nc21`, for which the GI50 was 40.6 µM (inactive) with DU-145 and > 100 µM (inactive) with T47D.
`CC(NC(=O)OC(C)(C)C)C(=O)NC(Cc1ccccc1)C(=O)NCC(=O)O` (stereo not drawn) (Boc-Ala-Phe-Gly-OH; configuration not given here): the GI50 in the test on DU-145 and in the test on T47D was > 100 µM (inactive) each time.
With `C=CC(Br)(CBr)CCC1OC1(C)C` (configuration not stated), the GI50 with DU-145 was 25.3 µM (inactive).
As to `C/C=C1/CN2CCC34c5ccccc5N(C)C23C2CC1C4(C(=O)OC)C(OC(C)=O)O2` (configuration not stated), the GI50 in the test with DU-145 and with T47D was > 100 µM (inactive) throughout.
In the case of `O=C1CSC(c2c[nH]c3ccccc23)N1c1ccc(Cl)cc1Cl` (configuration not stated), the GI50 with DU-145 and in the test on T47D was > 100 µM (inactive) in each case.
As to `COc1ccc(C(=CCC(C)C2CCC3[C@@H]4C(OC(C)=O)CC5CC(OC(C)=O)CC[C@]5(C)C4CC(OC(C)=O)[C@]23C)c2ccc(OC)cc2)cc1` (some centres not stated), the GI50 in the test with T47D is 41 µM (inactive).
On to `CCNC(=S)N/N=C(/C)c1cccc(/C(C)=N\NC(=S)NCC)n1`, for which the GI50 with DU-145 is 1.35 µM (inactive); in the test on T47D, 2.72 µM (inactive).
With `CC(C)(CC(=O)Nc1ccccc1)C(=O)O`, the GI50 in the test with DU-145 and in the test with T47D was > 100 µM (inactive) in each case.
As for `N#C[BH2-][n+]1cn(C2CC(O)C(COP(=O)(O)OC3CC(n4c[n+]([BH2-]C#N)c5c(=O)[nH]c(N)nc54)OC3CO)O2)c2nc(N)[nH]c(=O)c21` (configuration not stated), the GI50 with DU-145 and in the test with T47D was > 100 µM (inactive) in each case.
With `COc1cc2c3c(c1O)-c1c(ccc(OC)c1OC)CC3N(C)CC2` (configuration not stated), the GI50 in the test on DU-145 and with T47D was > 100 µM (inactive) throughout.
For `Cc1cccc2c1C(=O)[C@](C)([C@]1(C)Nc3cccc(C)c3C1=O)N2`, the values for the GI50 in the test on DU-145 and with T47D were 54.1 µM (inactive) and 28.8 µM (inactive), respectively.
For the compound `Nc1cc(CO)cc(Nc2c3ccccc3nc3occc23)c1`, the results for the GI50 in the test with DU-145 and with T47D were 43.3 µM (inactive) and 29.6 µM (inactive), respectively.
With `Cc1c2oc3c(C)cnc(C(=O)NC4C(=O)NC(C(C)C)C(=O)N5CCCC5C(=O)N(C)CC(=O)N(C)C(C(C)C)C(=O)OC4C)c3nc-2c(C(=O)NC2C(=O)NC(C(C)C)C(=O)N3CCCC3C(=O)N(C)CC(=O)N(C)C(C(C)C)C(=O)OC2C)c(N)c1=O` (configuration not stated), the GI50 in the test on DU-145 was 4.72 µM (inactive); in the test with T47D it was 1.07 µM (active).
For the compound `CC12c3c4cc(Br)cc3Oc3cc(Br)cc(c31)Oc1cc(Br)cc(c12)O4`, the GI50 was 16.4 µM (inactive) in the test with DU-145 and 28.1 µM (inactive) with T47D.
In the case of `COc1ccc(/C=C2\C[C@H]3[C@@H]4CCC5=C/C(=N/O)CC[C@]5(C)[C@H]4CC[C@]3(C)\C2=N\O)cc1`, the GI50 with DU-145 is 13.4 µM (inactive); with T47D, 7.98 µM (inactive).
Take `OCC(O)COCn1cc(Cn2ncc3c(NCc4ccccc4)ncnc32)nn1` (configuration not stated): the GI50 in the test on DU-145 and in the test on T47D was > 100 µM (inactive) in each case.
In the case of `CON(C)C(=O)C1CCCO1` (configuration not stated), the GI50 in the test with DU-145 and with T47D was > 100 µM (inactive) each time.
With `CCCC#CCOC(=O)c1cc([N+](=O)[O-])cc([N+](=O)[O-])c1`, the GI50 with DU-145 and in the test with T47D was > 100 µM (inactive) in each case.
On to `C[C@H](CCC(=O)O)[C@H]1CC[C@H]2[C@@H]3[C@@H](O)C[C@@H]4C[C@H](O)CC[C@]4(C)[C@H]3CC[C@]12C`, for which the GI50 in the test on DU-145 and with T47D was > 100 µM (inactive) each time.
On to `CCOC(=O)C(NCc1ccc2c(c1)OCO2)(NC(=O)c1ccccc1)C(F)(F)F` (configuration not stated), for which the GI50 is > 100 µM (inactive) in the test on DU-145 and 38.3 µM (inactive) in the test on T47D.
For `c1ccc(C2=NCCc3cc4c(cc32)OCO4)cc1`, in that order: > 100 µM (inactive) and > 100 µM (inactive).
In the case of `CC1=CC(=O)C2=C(C)CCC3C(C)C(=O)OC3C12` (configuration not stated), the GI50 in the test with DU-145 and in the test with T47D was > 100 µM (inactive) each time.
`CC1(C)CC(=O)C(=CNC(=S)c2ccccc2)C(=O)C1`: the GI50 with DU-145 is > 100 µM (inactive).
For the compound `COc1ccc(Cc2c(N)[nH]c(=O)[nH]c2=O)cc1`, the GI50 in the test on T47D was > 100 µM (inactive).
In the case of `Cc1cccc2c1CC1(Cc3c(C)cccc3C1=O)C2=O`, the GI50 with DU-145 and with T47D was > 100 µM (inactive) in each case.
`Cc1ccc(Nc2c(C#N)[n+]([O-])c3cc(Cl)ccc3[n+]2[O-])cc1`: the GI50 in the test with DU-145 and in the test with T47D was > 100 µM (inactive) throughout.
As to `COc1ccc(COCC[C@H](C)OC2OC(CO[Si](C)(C)C(C)(C)C)C(OC(=O)CCCN=[N+]=[N-])C(OC(=O)CCCN=[N+]=[N-])C2OC(=O)CCCN=[N+]=[N-])cc1` (some centres not stated), the GI50 with DU-145 is > 100 µM (inactive); with T47D it was 31 µM (inactive).
As for `C[C@@](Br)(C(=O)O)[C@H](Br)C(=O)O`, the GI50 in the test with DU-145 and in the test with T47D was > 100 µM (inactive) in each case.
